One assay deals with T1, human JAK1 (Homo sapiens, UniProt P23458).
T1 construct: human JAK1 (a.a. 837-1142); made in house; host or cells: insect cells (baculovirus)
Briefly: In vitro JAK kinase assay (Example G, HTRF), JAK1. Type of assay: biochemical. The settings on record: 1 mM ATP.

The next assay addresses T2, human JAK2 (Homo sapiens, UniProt O60674).
T2 construct: JAK2 (a.a. 828-1132); made in house; host or cells: insect cells (baculovirus)
Description: In vitro JAK kinase assay (Example G, HTRF), JAK2. Conditions: ratio of IC50s JAK2 over JAK1, 1 mM ATP. Type of assay: biochemical. For orientation: In TR-FRET formats the signal depends on donor and acceptor labels being close together.

Molecules are shown by their SMILES. pIC50: −log10 of the molar value.

T1 sequence (P23458 849-1154): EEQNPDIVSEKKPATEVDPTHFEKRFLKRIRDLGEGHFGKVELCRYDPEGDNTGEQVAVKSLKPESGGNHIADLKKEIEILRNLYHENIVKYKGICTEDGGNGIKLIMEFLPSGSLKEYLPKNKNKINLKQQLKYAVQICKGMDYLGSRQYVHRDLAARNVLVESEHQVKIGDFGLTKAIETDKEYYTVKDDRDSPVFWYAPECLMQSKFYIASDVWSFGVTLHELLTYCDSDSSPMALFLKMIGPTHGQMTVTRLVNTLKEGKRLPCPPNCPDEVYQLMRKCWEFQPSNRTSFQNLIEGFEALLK
T2 sequence (O60674 828-1132): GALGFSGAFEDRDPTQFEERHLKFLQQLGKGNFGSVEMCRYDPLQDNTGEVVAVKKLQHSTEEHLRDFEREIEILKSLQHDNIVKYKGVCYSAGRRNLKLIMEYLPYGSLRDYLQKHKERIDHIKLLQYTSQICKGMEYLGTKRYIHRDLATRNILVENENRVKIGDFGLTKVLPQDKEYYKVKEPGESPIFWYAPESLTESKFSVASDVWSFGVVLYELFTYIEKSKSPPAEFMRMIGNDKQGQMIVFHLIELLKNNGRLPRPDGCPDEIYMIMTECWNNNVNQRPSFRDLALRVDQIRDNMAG

Consider `N#CC[C@]1(n2cc(-c3ncnc4[nH]ccc34)cn2)C[C@H](N2CCC(Oc3cc(CCO)cc(C(F)(F)F)n3)CC2)C1` [Compound 26, {trans-3-(4-{[4-(2-hydroxyethyl)-6-(trifluoromethyl)pyridin-2-yl]oxy}piperidin-1-yl)-1-[4-(7H-pyrrolo[2,3-d]pyrimidin-4-yl)-1H-pyrazol-1-yl]cyclobutyl}acetonitrile], for which, on human JAK1, the pIC50 was above 8.00. Besides, the JAK2/JAK1 on human JAK2 is above 10.

For orientation: pIC50 means the negative decadic logarithm of the IC50, by convention in mol/L. Low values mean a large IC50, high ones a small IC50.

These data come from patent US20190202840A1, “SALTS OF (S)-7-(1-(9H-PURIN-6-YLAMINO)ETHYL)-6-(3-FLUOROPHENYL)-3-METHYL-5H-THIAZOLO[3,2-A]PYRIMIDIN-5-ONE” (Incyte Corporation, priority 2015, published 2019).
